# Data published in PMC8344233, “Anticancer activity and toxicity of new quaternary ammonium geldanamycin derivative salts and their mixtures with potentiators” (Journal of Enzyme Inhibition and Medicinal Chemistry, 2021).
# Where two headings read alike, the source gives them in different places.
# Assays:
# Format in all cases: cell-based, human
# [1] = system: MDA-MB-231; assay: MTT cytotoxicity assay, MDA-MB-231 (1st panel); settings: for IC50: Homo sapiens, MDA-MB-231, ± SD, MTT, 72 h; for selectivity index SI (MDA-MB-231): IC50 normal cell line CCD39Lu/IC50 MDA-MB-231
# Protocol: (§1) Cell survival was measured as the percentage absorbance compared to the control (nontreated cells). […]
# (§2) SI indexes were calculated from equation SI = IC50 normal cell line HDF/IC50 respective cancerous cell line (Table 2). A beneficial SI > 1.0 indicates a compound with efficacy against tumor cell greater than the toxicity against normal cells.
# (§3) All experiments were carried out with human breast adenocarcinoma (MDA-MB-231 and MCF-7), hepatocellular carcinoma (HepG2), human cervical adenocarcinoma (HeLa) cancer cell lines, and human normal lung fibroblast (CCD39Lu) cell line. The cell line was purchased from the European Collection of Cells Cultures (ECACC, Salisbury, UK), and cultured in DMEM with phenol red supplemented with 10% (v/v) FBS, 1% (v/v) penicillin/streptomycin, and 1% (v/v) L-glutamine at 37 °C, in a humidified atmosphere containing 5% CO2.
# (§4) The tested compounds were dissolved in DMSO to the final concentration 10 mM and stored […]
# (§5) The cytotoxic effect of the tested compounds was determined by MTT assay. MDA-MB-231, MCF-7, HepG2, HeLa, and CCD39Lu cells were seeded in 96 wells plates at density 2x10^4 cells/well and incubated overnight under cell culture condition. Next, cells were treated with tested compounds at concentrations of 10 µM; 5 µM; 2.5 µM; 1.2 µM; 0.6 µM; 0.3 µM; 0.15 […]
# (§6) µM. Moreover, GDM (for MCF-7) and 8 (for MCF-7 and MDA-MB-231) due to high cytotoxicity, were additionally tested at a lower concentration range of 2.5 µM; 1.2 µM; 0.6 µM; 0.3 µM; 0.15µM; 0.07 µM; 0.03 µM. DMSO was used as a control, and the concentration […]
# (§7) Tested compounds were added to cells in the medium without phenol red. Cells were incubated 72 h at 37 °C in a humidified atmosphere containing 5% CO2.
# (§8) Then, the medium was aspirated and MTT solution at a concentration of 0.59 mg/mL in cell culture medium was added to each well. Plates were incubated for 1.5 hours at 37 °C, and then plates were centrifuged for 3 minutes. The formazan crystals were dissolved in 200 µl DMSO and plates were agitated on a plate shaker at 300 –500 rpm for 10 minutes. Absorbance at 570 nm was measured using a plate reader (Biotek Instruments, Elx -800). Data were normalized to the mean absorption of control cells. All experiments were performed at least three times. […]
# [2] = system: HepG2; assay: MTT cytotoxicity assay, HepG2 (1st panel); settings: for IC50: Homo sapiens, HepG2, ± SD, MTT, 72 h; for selectivity index SI (HepG2): IC50 normal cell line CCD39Lu/IC50 HepG2
# Protocol: as §1, §2, §3, §4, §5, §6, §7, §8
# [3] = system: cancer cell lines; assay: Cytotoxicity, values summarised over several cancer cell lines
# Protocol: Human cancer cells SKBR-3 (human breast cancer cell line) and SKOV-3 (ovarian cancer cell line) were cultured in McCoy’s Modified Medium. Human cancer cells PC-3 (human prostate cancer cell line) were cultured in F-12K medium, as well as A549 cell line (lung cancer cell line). U-87MG cells (glioblastoma cell line) were cultured in Eagle’s Minimal Essential Medium. Human Dermal Fibroblasts cell line (HDF) was cultured in Fibroblast Basal Medium.
# Each medium was supplemented with 10% fetal bovine serum, 1% L-glutamine, and 1% penicillin/streptomycin solution. The cell lines were kept in the incubator at 37◦C. The optimal plating density of cell lines was determined to be 5 × 104. All the cell lines and mediums were obtained from American Type Culture Collection (ATCC) supplied by LGC-Standards. The protein-staining SRB (Sigma-Aldrich) microculture colorimetric assay, developed by the National Cancer Institute (USA) for in vitro antitumor screening was used in this study, to estimate the cell number by providing a sensitive index of total cellular protein content, being linear to cell density. The monolayer cell culture was trypsinized and the cell count was adjusted to 5 × 10^4 cells. To each well of the 96 well microtiter plate, 0.1 mL of the diluted cell suspension (approximately […]) was added. After 24 hours, when a partial monolayer was formed, the supernatant was washed out and 100 μL of six different compound concentrations (0.1, 0.2, 1, 2, 10, and 20 μM) were added to the cells in microtitre plates. The tested compounds were dissolved in DMSO (containing 10 % of water) (100 μL) and the […]
# lines. The cells were exposed to compounds for 72 hours at 37 °C in a humidified atmosphere (90% RH) containing 5% CO2. After that, 25 μL of 50 % trichloroacetic acid was added to the wells and the plates were incubated for 1 hour at 4◦C. The plates were then washed out with the distilled water to remove traces of medium and next dried by the air. The air-dried plates were stained with 100 μL of 0.4% sulforhodamine B (prepared in 1 % acetic acid) and kept for 30 minutes at room temperature. The unbound dye was removed by rapidly washing with 1% […]
# acetic acid and then air dried overnight. The protein-bound dye was dissolved in 100 μL of 10 mM unbuffered Tris base (pH 10.5) for optical density determination at 490 nm. All cytotoxicity experiments were performed three times. Cell survival was measured as the percentage absorbance compared to the control (nontreated cells). Cytarabine (ara-C) and GDM were used as the internal standards. Additionally biological assays were performed in Human Dermal Fibroblasts cell line (HDF) in aim to evaluate cytotoxicity of GDM and its 1-13 analogs in healthy cells. SI indexes were calculated from equation SI = IC50 normal cell line HDF/IC50 respective cancerous cell line (Table 2). A beneficial SI > 1.0 indicates a compound with efficacy against tumor cell greater than the toxicity against normal cells.
# as §3, §4, §5
# [4] = Homo sapiens, SKBR-3, SKOV-3, PC-3, U-87 and A-549, approximate level or span, read-out: IC50 in 2nd panel of cancer cell lines
SMILES,IC50 [1] [nM],selectivity index SI (MDA-MB-231) [1],IC50 [2] [nM],selectivity index SI (HepG2) [2],"IC50 [3, 4] [nM]","IC50 ([3]; Homo sapiens, MDA-MB-231, MCF-7, HeLa and HepG2, read-out: IC50s in 1st panel of cancer cell lines) [nM]","IC50 ([3]; Homo sapiens, span over the four cell lines, read-out: IC50s in MCF-7, MDA-MB-231, A549 and HeLa) [nM]","SI indexes (1st panel, text summary) ([3]; vs CCD39Lu, Table 1)","IC50 ([3]; SKBR-3, SKOV-3, PC-3, U-87 and A-549, approximate level or span, read-out: IC50 in 2nd panel of cancer cell lines) [nM]","IC50 ([3]; Homo sapiens, approximate level over the three cancer cell lines, mixtures equimolar 1:1, read-out: IC50 in SKBR-3, SKOV-3 and PC-3) [nM]"
CO[C@H]1/C=C\C=C(/C)C(=O)NC2=CC(=O)C(NC3CCC3)=C(C[C@@H](C)C[C@H](OC)[C@H](O)[C@@H](C)/C=C(\C)[C@@H]1OC(N)=O)C2=O [Compound 1],2450 ± 780,> 4.08,1750 ± 40,> 5.71,~7500,,,,,
CO[C@H]1/C=C\C=C(/C)C(=O)NC2=CC(=O)C(NC3CN4CCC3CC4)=C(C[C@@H](C)C[C@H](OC)[C@H](O)[C@@H](C)/C=C(\C)[C@@H]1OC(N)=O)C2=O (some centres unmarked) [Compound 8],140 ± 10,6.21,1250 ± 220,0.70,,100 to 1000,90 to 1060,< 1,,
C=CC[N+]12CCC(CC1)C(NC1=C3C[C@@H](C)C[C@H](OC)[C@H](O)[C@@H](C)/C=C(\C)[C@H](OC(N)=O)[C@@H](OC)/C=C\C=C(/C)C(=O)NC(=CC1=O)C3=O)C2 (some centres unmarked) [Compound 9],4650 ± 2650,> 2.15,> 10000,> 1,2000 to 3000,,,,,
C/C=C/C[N+]12CCC(CC1)C(NC1=C3C[C@@H](C)C[C@H](OC)[C@H](O)[C@@H](C)/C=C(\C)[C@H](OC(N)=O)[C@@H](OC)/C=C\C=C(/C)C(=O)NC(=CC1=O)C3=O)C2 (some centres unmarked) [Compound 10],4640 ± 1510,> 2.16,> 10000,> 1,~1700,,,,1290 to 1940,
CO[C@H]1/C=C\C=C(/C)C(=O)NC2=CC(=O)C(NC3C[N+]4(C/C=C/c5ccccc5)CCC3CC4)=C(C[C@@H](C)C[C@H](OC)[C@H](O)[C@@H](C)/C=C(\C)[C@@H]1OC(N)=O)C2=O (some centres unmarked) [Compound 13],4660 ± 2490,> 2.15,> 10000,> 1,2000 to 3000,,,,,~2000
